According to patent publication US20240174624A1, “CHIRAL N-(1,3,4-OXADIAZOLE-2-YL)PHENYL CARBOXYLIC ACID AMIDES AND THEIR USE AS HERBICIDES” (Bayer Aktiengesellschaft, priority 2021, published 2024):

Legend:
ECHCG [1] = assay: Pre-emergence herbicidal action; type: in vivo, Echinochloa crus-galli; conditions: scored after 3 weeks
From the text: (§1) Seeds of monocotyledonous and dicotyledonous weed plants and crop plants are laid out in sandy loam soil in wood-fibre pots and covered with soil. The compounds of the invention, formulated in the form of wettable powders (WP) or as emulsion concentrates (EC), are then applied to the surface of the covering soil in the form of an aqueous suspension or emulsion at a water application rate equivalent to 600 to 800 l/ha, with addition of 0.2% wetting agent. After the treatment, the pots are placed in a greenhouse and kept under good growth conditions for the trial plants. The damage to the test plants is scored visually after a test period of 3 weeks by comparison with untreated controls (herbicidal activity in percent (%): 100% activity=the plants have died, 0% activity=like control plants). […] The tables below illustrate, in an illustrative manner, the post-emergence herbicidal action of the compounds of the invention, the herbicidal activity being stated in percent.

AMARE [2] = assay: Post-emergence herbicidal action; type: in vivo, Amaranthus retroflexus; conditions: assessed after about 3 weeks
Method: (§2) Seeds of monocotyledonous and dicotyledonous weed and crop plants are laid out in sandy loam soil in wood-fibre pots, covered with soil and cultivated in a greenhouse under good growth conditions. 2 to 3 weeks after sowing, the test plants are treated at the one-leaf stage. The compounds of the invention, formulated in the form of wettable powders (WP) or as emulsion concentrates (EC), are then sprayed onto the green parts of the plants in the form of an aqueous suspension or emulsion at a water application rate equating to 600 to 800 l/ha, with addition of 0.2% wetting agent. After the test plants have been left to stand in the greenhouse under optimal growth conditions for about 3 weeks, the action of the preparations is assessed visually in comparison to untreated controls (herbicidal action in percent (%): 100% activity=the plants have died, 0% activity=like control plants). […] The tables below illustrate, in an illustrative manner, the post-emergence herbicidal action of the compounds of the invention, the herbicidal activity being stated in percent.

SETVI [3] = assay: Pre-emergence herbicidal action; type: in vivo, Setaria viridis; conditions: scored after 3 weeks
From the text: as §1, with “percent. In the experiments that follow, the herbicidal action of the compounds of the invention and that of the corresponding known racemic compounds closest from WO2012126932 and WO2018202535 were compared under the above-specified conditions by the pre-emergence and post-emergence method. The example numbers given in the tables relate to the compounds disclosed in the respective documents.” for “percent.”

VERPE [4] = assay: Post-emergence herbicidal action; type: in vivo, Veronica persica; conditions: assessed after about 3 weeks
Method: as §2, with “percent. In the experiments that follow, the herbicidal action of the compounds of the invention and that of the corresponding known racemic compounds closest from WO2012126932 and WO2018202535 were compared under the above-specified conditions by the pre-emergence and post-emergence method. The example numbers given in the tables relate to the compounds disclosed in the respective documents.” for “percent.”

ZEAMX = assay: Pre-emergence damage to crop plants; type: in vivo, Zea mays; conditions: 80 g a.i./ha, comparative experiment
From the text: as §1, with “percent. In the experiments that follow, the herbicidal action of the compounds of the invention and that of the corresponding known racemic compounds closest from WO2012126932 and WO2018202535 were compared under the above-specified conditions by the pre-emergence and post-emergence method. The example numbers given in the tables relate to the compounds disclosed in the respective documents.” for “percent.”

PHBPU = assay: Post-emergence herbicidal action; type: in vivo, Pharbitis purpurea; conditions: 20 g/ha, assessed after about 3 weeks
Method: as §2

AMARE [5] = assay: Pre-emergence herbicidal action; type: in vivo, Amaranthus retroflexus; conditions: scored after 3 weeks
From the text: as §1

VIOTR [6] = assay: Pre-emergence herbicidal action; type: in vivo, Viola tricolor; conditions: scored after 3 weeks
From the text: as §1

AVEFA = assay: Pre-emergence herbicidal action; type: in vivo, Avena fatua; conditions: 80 g/ha, scored after 3 weeks
From the text: as §1, with “percent. In the experiments that follow, the herbicidal action of the compounds of the invention and that of the corresponding known racemic compounds closest from WO2012126932 and WO2018202535 were compared under the above-specified conditions by the pre-emergence and post-emergence method. The example numbers given in the tables relate to the compounds disclosed in the respective documents.” for “percent.”

MATIN = assay: Pre-emergence herbicidal action; type: in vivo, Matricaria inodora; conditions: scored after 3 weeks
From the text: as §1, with “percent. In the experiments that follow, the herbicidal action of the compounds of the invention and that of the corresponding known racemic compounds closest from WO2012126932 and WO2018202535 were compared under the above-specified conditions by the pre-emergence and post-emergence method. The example numbers given in the tables relate to the compounds disclosed in the respective documents.” for “percent.”

GLXMA = assay: Post-emergence damage to crop plants; type: in vivo, Glycine max; conditions: 5 g a.i./ha, comparative experiment
Method: as §2, with “percent. In the experiments that follow, the herbicidal action of the compounds of the invention and that of the corresponding known racemic compounds closest from WO2012126932 and WO2018202535 were compared under the above-specified conditions by the pre-emergence and post-emergence method. […]” for “percent.”

VIOTR [7] = assay: Post-emergence herbicidal action; type: in vivo, Viola tricolor; conditions: for Herbicidal action against VIOTR: comparative experiment; for Post-emergence action against VIOTR: assessed after about 3 weeks
Method: as §2, with “percent. In the experiments that follow, the herbicidal action of the compounds of the invention and that of the corresponding known racemic compounds closest from WO2012126932 and WO2018202535 were compared under the above-specified conditions by the pre-emergence and post-emergence method. The example numbers given in the tables relate to the compounds disclosed in the respective documents.” for “percent.”

TRZAS = assay: Post-emergence damage to crop plants; type: in vivo, Triticum aestiva; conditions: 5 g a.i./ha, comparative experiment
Method: as §2, with “percent. In the experiments that follow, the herbicidal action of the compounds of the invention and that of the corresponding known racemic compounds closest from WO2012126932 and WO2018202535 were compared under the above-specified conditions by the pre-emergence and post-emergence method. The example numbers given in the tables relate to the compounds disclosed in the respective documents.” for “percent.”

SETVI [8] = assay: Post-emergence herbicidal action; type: in vivo, Setaria viridis; conditions: for Post-emergence action against SETVI: assessed after about 3 weeks
Method: as §2, with “percent. In the experiments that follow, the herbicidal action of the compounds of the invention and that of the corresponding known racemic compounds closest from WO2012126932 and WO2018202535 were compared under the above-specified conditions by the pre-emergence and post-emergence method. The example numbers given in the tables relate to the compounds disclosed in the respective documents.” for “percent.”

DIGSA [9] = assay: Post-emergence herbicidal action; type: in vivo, Digitaria sanguinalis; conditions: assessed after about 3 weeks
Method: as §2, with “percent. In the experiments that follow, the herbicidal action of the compounds of the invention and that of the corresponding known racemic compounds closest from WO2012126932 and WO2018202535 were compared under the above-specified conditions by the pre-emergence and post-emergence method. The example numbers given in the tables relate to the compounds disclosed in the respective documents.” for “percent.”

ALOMY = assay: Pre-emergence herbicidal action; type: in vivo, Alopecurus myosuroides; conditions: 80 g/ha, scored after 3 weeks
From the text: as §1, with “percent. In the experiments that follow, the herbicidal action of the compounds of the invention and that of the corresponding known racemic compounds closest from WO2012126932 and WO2018202535 were compared under the above-specified conditions by the pre-emergence and post-emergence method. The example numbers given in the tables relate to the compounds disclosed in the respective documents.” for “percent.”

VERPE [10] = assay: Pre-emergence herbicidal action; type: in vivo, Veronica persica; conditions: scored after 3 weeks
From the text: as §1, with “percent. In the experiments that follow, the herbicidal action of the compounds of the invention and that of the corresponding known racemic compounds closest from WO2012126932 and WO2018202535 were compared under the above-specified conditions by the pre-emergence and post-emergence method. The example numbers given in the tables relate to the compounds disclosed in the respective documents.” for “percent.”

DIGSA [11] = assay: Pre-emergence herbicidal action; type: in vivo, Digitaria sanguinalis; conditions: scored after 3 weeks
From the text: as §1

BRSNW = assay: Pre-emergence damage to crop plants; type: in vivo, Brassica napus; conditions: 20 g a.i./ha, comparative experiment
From the text: as §1, with “percent. In the experiments that follow, the herbicidal action of the compounds of the invention and that of the corresponding known racemic compounds closest from WO2012126932 and WO2018202535 were compared under the above-specified conditions by the pre-emergence and post-emergence method. The example numbers given in the tables relate to the compounds disclosed in the respective documents.” for “percent.”

ECHCG [12] = assay: Post-emergence herbicidal action; type: in vivo, Echinochloa crus-galli
Method: as §2, with “percent. In the experiments that follow, the herbicidal action of the compounds of the invention and that of the corresponding known racemic compounds closest from WO2012126932 and WO2018202535 were compared under the above-specified conditions by the pre-emergence and post-emergence method. The example numbers given in the tables relate to the compounds disclosed in the respective documents.” for “percent.”

## Cc1nnc(NC(=O)c2ccc(C(F)F)c([S+](C)[O-])c2Cl)o1 (stereo in doubt) [Example I-6, 2-chloro-N-(5-methyl-1,3,4-oxadiazol-2-yl)-3-[(S)-methylsulfinyl]-4-(difluoromethyl)benzamide]
ECHCG [1]; 20 g/ha
  Pre-emergence action against ECHCG: 90%
ECHCG [1]; 80 g/ha
  Pre-emergence action against ECHCG: 100%
AMARE [2]; 5 g/ha
  Post-emergence action against AMARE: 90%
AMARE [2]; 20 g/ha
  Post-emergence action against AMARE: 100%
SETVI [3]; 20 g/ha
  Pre-emergence action against SETVI: 90%
SETVI [3]; 80 g/ha
  Pre-emergence action against SETVI: 100%
VERPE [4]; 5 g/ha
  Post-emergence action against VERPE: 90%
VERPE [4]; 20 g/ha
  Post-emergence action against VERPE: 90%
ZEAMX
  Damage to ZEAMX: 20%
PHBPU
  Post-emergence action against PHBPU: 90%
AMARE [5]; 20 g/ha
  Pre-emergence action against AMARE: 90%
AMARE [5]; 80 g/ha
  Pre-emergence action against AMARE: 100%
VIOTR [6]; 20 g/ha
  Pre-emergence action against VIOTR: 100%
VIOTR [6]; 80 g/ha
  Pre-emergence action against VIOTR: 100%
AVEFA
  Pre-emergence action against AVEFA: 100%
MATIN; 20 g/ha
  Pre-emergence action against MATIN: 90%
MATIN; 80 g/ha
  Pre-emergence action against MATIN: 90%
GLXMA
  Damage to GLXMA: 40%
VIOTR [7]; 5 g a.i./ha
  Herbicidal action against VIOTR: 80%
VIOTR [7]; 5 g/ha
  Post-emergence action against VIOTR: 80%
VIOTR [7]; 20 g a.i./ha
  Herbicidal action against VIOTR: 100%
VIOTR [7]; 20 g/ha
  Post-emergence action against VIOTR: 100%
TRZAS
  Damage to TRZAS: 20%
SETVI [8]; 5 g a.i./ha, comparative experiment
  Herbicidal action against SETVI: 100%
SETVI [8]; 5 g/ha
  Post-emergence action against SETVI: 100%
SETVI [8]; 20 g/ha
  Post-emergence action against SETVI: 100%
DIGSA [9]; 5 g/ha
  Post-emergence action against DIGSA: 90%
DIGSA [9]; 20 g/ha
  Post-emergence action against DIGSA: 90%
ALOMY
  Pre-emergence action against ALOMY: 100%
VERPE [10]; 20 g/ha
  Pre-emergence action against VERPE: 90%
VERPE [10]; 80 g/ha
  Pre-emergence action against VERPE: 100%
DIGSA [11]; 20 g/ha
  Pre-emergence action against DIGSA: 100%
DIGSA [11]; 80 g/ha
  Pre-emergence action against DIGSA: 100%
BRSNW
  Damage to BRSNW: 40%
ECHCG [12]; 20 g a.i./ha, comparative experiment
  Herbicidal action against ECHCG: 100%
ECHCG [12]; 20 g/ha, assessed after about 3 weeks
  Post-emergence action against ECHCG: 100%
